Assays:
[1] = target: FLT3 kinase (Homo sapiens (Human), UniProt P36888); assay: Competition binding assay (Kd), FLT3; details: competition binding assay
[2] = target: FLT3-ITD (Homo sapiens (Human), UniProt P36888, INS600HVDFREYEYD); assay: pFLT3 MSD assay, Ba/F3 FLT3-ITD; assay type: cell-based; details: Ba/F3 FLT3-ITD cells, 2 hours, read-out: BaF3-FLT3-ITD pFlt3 IC50
[3] = target: KIT kinase (Homo sapiens (Human), UniProt P10721); assay: Competition binding assay (Kd), KIT; details: competition binding assay
In short: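 Kd derived from eleven-point threefold serial dilutions of compound competing with bead-bound ligand for kinase; bound kinase eluted and measured by quantitative PCR. Kinase supplied either as a T7 phage fusion or expressed in HEK-293 cells with a DNA tag; DMSO served as control.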

FLT3 kinase, sequence (P36888 27-993): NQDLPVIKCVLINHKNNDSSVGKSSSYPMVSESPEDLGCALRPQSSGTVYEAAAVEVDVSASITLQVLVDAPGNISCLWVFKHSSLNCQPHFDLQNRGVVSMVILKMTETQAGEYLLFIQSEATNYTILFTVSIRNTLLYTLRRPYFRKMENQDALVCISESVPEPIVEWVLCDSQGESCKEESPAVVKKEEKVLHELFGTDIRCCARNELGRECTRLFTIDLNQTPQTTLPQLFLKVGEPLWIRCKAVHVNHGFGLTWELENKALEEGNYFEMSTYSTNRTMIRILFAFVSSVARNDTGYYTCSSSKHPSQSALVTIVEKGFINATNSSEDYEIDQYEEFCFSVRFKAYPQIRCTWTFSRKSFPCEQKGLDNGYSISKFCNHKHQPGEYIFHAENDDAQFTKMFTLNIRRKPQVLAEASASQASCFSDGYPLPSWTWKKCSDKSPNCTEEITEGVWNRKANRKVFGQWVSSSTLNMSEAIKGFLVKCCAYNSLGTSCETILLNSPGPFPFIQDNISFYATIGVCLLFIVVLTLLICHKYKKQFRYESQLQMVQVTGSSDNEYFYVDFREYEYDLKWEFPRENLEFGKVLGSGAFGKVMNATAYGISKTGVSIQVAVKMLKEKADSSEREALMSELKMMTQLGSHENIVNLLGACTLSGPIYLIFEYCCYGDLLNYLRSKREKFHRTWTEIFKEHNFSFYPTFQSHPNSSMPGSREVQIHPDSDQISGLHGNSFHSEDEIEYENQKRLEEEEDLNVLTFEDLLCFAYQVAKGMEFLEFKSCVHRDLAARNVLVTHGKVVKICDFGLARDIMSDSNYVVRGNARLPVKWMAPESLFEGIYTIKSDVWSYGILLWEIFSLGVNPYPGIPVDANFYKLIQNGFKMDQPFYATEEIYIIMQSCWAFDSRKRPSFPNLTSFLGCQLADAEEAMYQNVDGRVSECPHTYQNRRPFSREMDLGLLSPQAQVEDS
FLT3-ITD, sequence (P36888 other isoform, or with tags, fused parts or gaps limits assumed, stated change not applied): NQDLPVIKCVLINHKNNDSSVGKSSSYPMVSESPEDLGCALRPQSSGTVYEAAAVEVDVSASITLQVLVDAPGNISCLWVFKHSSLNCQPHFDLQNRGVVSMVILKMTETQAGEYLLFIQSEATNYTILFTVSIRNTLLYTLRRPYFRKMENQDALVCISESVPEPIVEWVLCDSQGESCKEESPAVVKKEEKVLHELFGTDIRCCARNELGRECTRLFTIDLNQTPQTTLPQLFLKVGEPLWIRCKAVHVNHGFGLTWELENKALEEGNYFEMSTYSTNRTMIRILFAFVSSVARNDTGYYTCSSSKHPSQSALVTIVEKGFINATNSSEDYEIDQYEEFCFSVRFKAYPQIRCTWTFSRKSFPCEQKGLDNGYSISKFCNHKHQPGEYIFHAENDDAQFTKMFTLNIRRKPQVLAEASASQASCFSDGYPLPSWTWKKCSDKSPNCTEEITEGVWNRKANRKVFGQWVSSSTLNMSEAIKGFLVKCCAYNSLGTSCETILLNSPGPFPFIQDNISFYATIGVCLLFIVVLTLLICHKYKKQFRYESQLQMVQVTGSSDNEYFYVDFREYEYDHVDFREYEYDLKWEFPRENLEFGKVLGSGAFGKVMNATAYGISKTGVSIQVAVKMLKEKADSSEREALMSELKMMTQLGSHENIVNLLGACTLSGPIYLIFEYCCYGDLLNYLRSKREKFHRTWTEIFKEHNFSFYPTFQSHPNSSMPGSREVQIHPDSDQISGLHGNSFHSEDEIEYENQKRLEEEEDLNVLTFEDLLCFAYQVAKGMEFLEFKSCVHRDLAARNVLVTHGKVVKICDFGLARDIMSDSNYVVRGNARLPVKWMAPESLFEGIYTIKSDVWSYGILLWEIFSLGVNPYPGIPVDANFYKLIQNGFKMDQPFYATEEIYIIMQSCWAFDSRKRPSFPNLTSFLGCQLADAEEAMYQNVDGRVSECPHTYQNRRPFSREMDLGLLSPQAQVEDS
KIT kinase, sequence (P10721 26-976): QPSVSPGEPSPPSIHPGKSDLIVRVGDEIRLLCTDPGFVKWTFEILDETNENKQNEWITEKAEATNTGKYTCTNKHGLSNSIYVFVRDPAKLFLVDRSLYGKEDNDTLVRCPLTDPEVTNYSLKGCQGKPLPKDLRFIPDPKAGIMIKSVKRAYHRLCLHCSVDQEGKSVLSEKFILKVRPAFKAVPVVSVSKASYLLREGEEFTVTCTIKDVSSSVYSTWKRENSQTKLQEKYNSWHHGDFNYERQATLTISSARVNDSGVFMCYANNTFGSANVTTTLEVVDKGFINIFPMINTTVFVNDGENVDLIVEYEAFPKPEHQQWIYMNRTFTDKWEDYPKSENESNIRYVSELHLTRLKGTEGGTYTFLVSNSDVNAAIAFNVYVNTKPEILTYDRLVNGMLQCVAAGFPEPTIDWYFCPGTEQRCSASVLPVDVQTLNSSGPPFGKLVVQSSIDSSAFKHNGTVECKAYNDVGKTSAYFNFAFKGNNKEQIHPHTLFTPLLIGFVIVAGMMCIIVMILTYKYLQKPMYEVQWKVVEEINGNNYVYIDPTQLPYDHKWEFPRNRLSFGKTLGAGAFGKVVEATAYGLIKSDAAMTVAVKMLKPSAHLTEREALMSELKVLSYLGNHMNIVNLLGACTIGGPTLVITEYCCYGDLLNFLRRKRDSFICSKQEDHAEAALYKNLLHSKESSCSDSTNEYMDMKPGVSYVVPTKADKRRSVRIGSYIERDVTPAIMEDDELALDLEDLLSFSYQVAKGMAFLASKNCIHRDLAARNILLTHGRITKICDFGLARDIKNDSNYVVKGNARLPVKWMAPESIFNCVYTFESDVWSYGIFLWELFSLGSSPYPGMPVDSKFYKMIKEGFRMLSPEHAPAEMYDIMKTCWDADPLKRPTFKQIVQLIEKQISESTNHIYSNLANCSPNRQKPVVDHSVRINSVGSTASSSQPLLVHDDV

SMILES	Kd [1] [nM]	IC50 [2] [nM]	Kd [3] [nM]
CN(C)C(=O)COc1cc2ncc(-c3ccc(CC(=O)Nc4cc(C5(C(F)(F)F)CC5)on4)c(F)c3)nc2cc1OCC(=O)N(C)C [Example 154, 2-[4-[6,7-bis[2-(dimethylamino)-2-oxo-ethoxy]quinoxalin-2-yl]-2-fluoro-phenyl]-N-[5-[1-(trifluoromethyl)cyclo-propyl]isoxazol-3-yl]acetamide]	< 5	< 10	< 5
COc1ccc2ncc(-c3ccc(CC(=O)Nc4cc(C5(C(F)(F)F)CC5)on4)c(F)c3)nc2n1 [Example 155, 2-[2-fluoro-4-(6-methoxypyrido[2,3-b]pyrazin-3-yl)phenyl]-N-[5-[1-(trifluoromethyl)cyclo-propyl]isoxazol-3-yl]acetamide OR 2-[2-fluoro-4-(6-methoxypyrido[2,3-b]pyrazin-2-yl)phenyl]-N-[5-[1-(trifluoromethyl)cyclo-propyl]isoxazol-3-yl]acetamide]	< 5	< 10	5 to 20
COc1cc2ncc(-c3ccc(CC(=O)Nc4cc(C5(C(F)(F)F)CC5)on4)c(F)c3)nc2cc1OCc1ccccc1 [Example 156, 2-[4-(7-benzyloxy-6-methoxy-quinoxalin-2-yl)-2-fluoro-phenyl]-N-[5-[1-(trifluoromethyl)cyclo-propyl]isoxazol-3-yl]acetamide]	> 50	< 10	> 50
COc1cc2ncc(-c3ccc(CC(=O)Nc4cc(C5(C(F)(F)F)CC5)on4)c(F)c3)nc2cc1O [Example 157, 2-[2-fluoro-4-(7-hydroxy-6-methoxy-quinoxalin-2-yl)phenyl]-N-[5-[1-(trifluoro-methyl)cyclopropyl]isoxazol-3-yl]acetamide]	< 5	< 10	< 5
COc1cc2ncc(-c3ccc(CC(=O)Nc4cc(C5(C(F)(F)F)CC5)on4)c(F)c3)nc2cc1OCCN(C)C [Example 158, 2-[4-[7-[2-(dimethylamino)ethoxy]-6-methoxy-quinoxalin-2-yl]-2-fluoro-phenyl]-N-[5-[1-(trifluoromethyl)cyclo-propyl]isoxazol-3-yl]acetamide]	< 5	< 10	< 5
COCCOc1cc2ncc(-c3ccc(CC(=O)Nc4cc(C(C)(C)C(F)(F)F)on4)c(F)c3)nc2cc1OC [Example 159, 2-[2-fluoro-4-[7-methoxy-6-(2-methoxy-ethoxy)quinoxalin-2-yl]phenyl]-N-[5-(2,2,2-trifluoro-1,1-dimethyl-ethyl)isoxazol-3-yl]acetamide]	< 5	< 10	< 5
COCCOc1cc2nc(-c3ccc(CC(=O)Nc4cc(C(C)(C)C(F)(F)F)on4)c(F)c3)cnc2cc1OC [Example 160, 2-[2-fluoro-4-[6-methoxy-7-(2-methoxy-ethoxy)quinoxalin-2-yl]phenyl]-N-[5-(2,2,2-trifluoro-1,1-dimethyl-ethyl)isoxazol-3-yl]acetamide]	< 5	< 10	< 5
COCCOc1cc2nc(-c3ccc(CC(=O)Nc4cc(C(C)(C)C)nn4C)c(F)c3)cnc2cc1OC [Example 161, N-(5-tert-butyl-2-methyl-pyrazol-3-yl)-2-[2-fluoro-4-[6-methoxy-7-(2-methoxyethoxy)quinoxalin-2-yl]phenyl]acetamide]	< 5	< 10	< 5
COCCOc1cc2ncc(-c3ccc(CC(=O)Nc4cc(C(C)(C)C)nn4C)c(F)c3)nc2cc1OC [Example 162, N-(5-tert-butyl-2-methyl-pyrazol-3-yl)-2-[2-fluoro-4-[7-methoxy-6-(2-methoxyethoxy)quinoxalin-2-yl]phenyl]acetamide]	< 5	< 10	< 5
COc1cc2nc(-c3ccc(CC(=O)Nc4cc(C5(C(F)(F)F)CC5)on4)c(F)c3)cnc2cc1OCc1ccccc1 [Example 163, 2-[4-(6-benzyloxy-7-methoxy-quinoxalin-2-yl)-2-fluoro-phenyl]-N-[5-[1-(trifluoromethyl)cyclo-propyl]isoxazol-3-yl]acetamide]	> 50	< 10	> 50
COc1cc2nc(-c3ccc(CC(=O)Nc4cc(C(C)(C)C(F)(F)F)on4)c(F)c3)cnc2cc1O [Example 164, 2-[2-fluoro-4-(6-hydroxy-7-methoxy-quinoxalin-2-yl)phenyl]-N-[5-(2,2,2-trifluoro-1,1-dimethyl-ethyl)isoxazol-3-yl]acetamide]	< 5	< 10	5 to 20
COc1cc2nc(-c3ccc(CC(=O)Nc4cc(C(C)(C)C(F)(F)F)on4)c(F)c3)cnc2cc1OCCO [Example 165, 2-[2-fluoro-4-[6-(2-hydroxyethoxy)-7-methoxy-quinoxalin-2-yl]phenyl]-N-[5-(2,2,2-trifluoro-1,1-dimethyl-ethyl)isoxazol-3-yl]acetamide]	< 5	< 10	< 5
COc1cc2nc(-c3ccc(CC(=O)Nc4cc(C5(C(F)(F)F)CC5)on4)c(F)c3)cnc2cc1OCCN=[N+]=[N-] [Example 166, 2-[4-[6-(2-azidoethoxy)-7-methoxy-quinoxalin-2-yl]-2-fluoro-phenyl]-N-[5-[1-(trifluoromethyl)cyclo-propyl]isoxazol-3-yl]acetamide]	< 5	< 10	< 5
COc1cc2nc(-c3ccc(CC(=O)Nc4cc(C5(C(F)(F)F)CC5)on4)c(F)c3)cnc2cc1OCCN [Example 167, 2-[4-[6-(2-aminoethoxy)-7-methoxy-quinoxalin-2-yl]-2-fluoro-phenyl]-N-[5-[1-(trifluoromethyl)cyclo-propyl]isoxazol-3-yl]acetamide]	< 5	< 10	< 5
COc1cc2nc(-c3ccc(CC(=O)Nc4cc(C5(C(F)(F)F)CC5)on4)c(F)c3)cnc2cc1OCCNC(C)=O [Example 168, 2-[4-[6-(2-acetamidoethoxy)-7-methoxy-quinoxalin-2-yl]-2-fluoro-phenyl]-N-[5-[1-(trifluoromethyl)cyclo-propyl]isoxazol-3-yl]acetamide]	< 5	< 10	< 5
COc1cc2nc(C)c(-c3ccc(CC(=O)Nc4cc(C5(C(F)(F)F)CC5)on4)c(F)c3)nc2cc1OC [Example 169, 2-[4-(6,7-dimethoxy-3-methyl-quinoxalin-2-yl)-2-fluoro-phenyl]-N-[5-[1-(trifluoromethyl)cyclo-propyl]isoxazol-3-yl]acetamide]	< 5	< 10	< 5
COc1cc2ncc(-c3ccc(CC(=O)Nc4cc(C(C)(C)C(F)(F)F)on4)c(F)c3)nc2cc1OCCO [Example 170, 2-[2-fluoro-4-[7-(2-hydroxyethoxy)-6-methoxy-quinoxalin-2-yl]phenyl]-N-[5-(2,2,2-trifluoro-1,1-dimethyl-ethyl)isoxazol-3-yl]acetamide]	< 5	< 10	< 5
COCCOc1cc2nc(-c3ccc(CC(=O)Nc4cc(C5(C(F)(F)F)CC5)on4)c(F)c3)cnc2cc1OC [compound 77]	< 5	< 10	< 5
